Assay results taken from paper PMC11851430, “Workflow for E3 Ligase Ligand Validation for PROTAC Development” (ACS Chemical Biology, 2025).

How the values were obtained:
Test in all cases: DSF assay
Type in all cases: binding
Conditions in all cases: 20 µM compound
RPS6KA1A = tested on: RPS6KA1A
Experimental: (§1) Excitation and emission filters […]
(§2) curve. […] Measurements were
(§3) Kinobeads selectivity profiling of PROTACs
(§4) (Multiplexion, Heidelberg, Germany).
(§5) The cell lysate was ultracentrifuged and diluted
(§6) NaF, 1 mM DTT, protease inhibitors and phosphatase inhibitors to a final concentration of 5 mg/ml as determined by Bradford assay. For selectivity profiling of compounds the cell lysate (2.5 mg of total proteins per pulldown) was pre-incubated with increasing compound […]
(§7) µM) for 45 min at 4 °C in an end-over-end shaker. Subsequently, lysates were incubated with Kinobeads epsilon (17 µL settled beads) for 30 min at 4 °C. To assess the degree of protein depletion from the lysates by Kinobeads, the flow-through of the DMSO control was recovered

CDC42BPAA = tested on: CDC42BPAA
Experimental: as §1, §2, §3, §4, §5, §6, §7

CSNK1DA = molecular target: T1, CSNK1DA (Homo sapiens, UniProt P48730)
T1 construct: purchased in-house DSF panel (SGC-style construct names; the trailing A/B is a construct suffix)
T1 sequence (P48730 1-294): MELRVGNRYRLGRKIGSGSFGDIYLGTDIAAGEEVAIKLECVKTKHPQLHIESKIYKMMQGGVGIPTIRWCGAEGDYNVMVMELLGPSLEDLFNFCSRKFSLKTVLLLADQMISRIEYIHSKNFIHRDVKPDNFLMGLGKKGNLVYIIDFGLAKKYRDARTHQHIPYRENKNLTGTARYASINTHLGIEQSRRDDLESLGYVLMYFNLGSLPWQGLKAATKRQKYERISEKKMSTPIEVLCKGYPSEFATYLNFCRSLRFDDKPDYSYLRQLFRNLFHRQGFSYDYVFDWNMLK
Experimental: as §1, §2, §3, §4, §5, §6, §7

BMPR2A = molecular target: T2, BMPR2A (Homo sapiens, UniProt Q13873)
T2 construct: purchased in-house DSF panel (SGC-style construct names; the trailing A/B is a construct suffix)
T2 sequence (Q13873 27-1038): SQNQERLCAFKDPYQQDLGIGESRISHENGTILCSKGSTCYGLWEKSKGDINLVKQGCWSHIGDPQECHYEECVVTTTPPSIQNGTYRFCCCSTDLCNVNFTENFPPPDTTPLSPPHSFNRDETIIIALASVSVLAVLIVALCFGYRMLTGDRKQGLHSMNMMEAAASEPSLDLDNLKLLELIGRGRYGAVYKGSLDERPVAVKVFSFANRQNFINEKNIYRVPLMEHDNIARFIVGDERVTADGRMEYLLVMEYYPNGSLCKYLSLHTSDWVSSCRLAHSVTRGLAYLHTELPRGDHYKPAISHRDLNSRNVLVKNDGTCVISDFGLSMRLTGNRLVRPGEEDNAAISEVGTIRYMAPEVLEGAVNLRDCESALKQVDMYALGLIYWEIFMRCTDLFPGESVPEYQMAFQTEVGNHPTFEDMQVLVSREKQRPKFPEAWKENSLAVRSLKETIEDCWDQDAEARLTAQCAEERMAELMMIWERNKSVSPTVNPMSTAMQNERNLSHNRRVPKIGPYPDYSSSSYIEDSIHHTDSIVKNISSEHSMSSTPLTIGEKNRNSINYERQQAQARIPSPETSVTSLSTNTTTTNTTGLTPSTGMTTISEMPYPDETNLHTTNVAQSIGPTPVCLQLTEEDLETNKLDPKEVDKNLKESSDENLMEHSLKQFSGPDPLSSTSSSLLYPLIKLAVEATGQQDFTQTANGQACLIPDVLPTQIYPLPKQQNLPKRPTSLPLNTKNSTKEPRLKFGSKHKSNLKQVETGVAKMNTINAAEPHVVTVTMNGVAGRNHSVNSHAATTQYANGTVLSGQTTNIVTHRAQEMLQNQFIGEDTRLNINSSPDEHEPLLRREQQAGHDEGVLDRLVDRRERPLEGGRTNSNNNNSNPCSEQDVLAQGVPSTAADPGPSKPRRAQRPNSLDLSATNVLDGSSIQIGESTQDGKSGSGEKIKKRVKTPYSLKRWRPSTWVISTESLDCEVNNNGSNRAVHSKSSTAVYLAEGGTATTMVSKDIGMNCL
Experimental: as §1, §2, §3, §4, §5, §6, §7

MARK3A = molecular target: T3, MARK3A (Homo sapiens, UniProt P27448)
T3 construct: purchased in-house DSF panel (SGC-style construct names; the trailing A/B is a construct suffix)
T3 sequence (P27448 56-307): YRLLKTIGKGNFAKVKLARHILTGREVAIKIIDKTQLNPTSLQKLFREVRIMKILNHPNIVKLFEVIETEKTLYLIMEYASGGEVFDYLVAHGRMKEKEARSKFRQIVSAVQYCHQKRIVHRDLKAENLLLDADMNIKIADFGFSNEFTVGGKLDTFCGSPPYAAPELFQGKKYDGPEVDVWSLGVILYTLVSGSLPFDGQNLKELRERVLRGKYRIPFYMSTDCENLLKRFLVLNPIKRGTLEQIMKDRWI
Experimental: as §1, §2, §3, §4, §5, §6, §7

CK2A1A = molecular target: T4, CK2A1A (Homo sapiens, UniProt P68400)
T4 construct: purchased in-house DSF panel (SGC-style construct names; the trailing A/B is a construct suffix)
T4 sequence (P68400 whole entry): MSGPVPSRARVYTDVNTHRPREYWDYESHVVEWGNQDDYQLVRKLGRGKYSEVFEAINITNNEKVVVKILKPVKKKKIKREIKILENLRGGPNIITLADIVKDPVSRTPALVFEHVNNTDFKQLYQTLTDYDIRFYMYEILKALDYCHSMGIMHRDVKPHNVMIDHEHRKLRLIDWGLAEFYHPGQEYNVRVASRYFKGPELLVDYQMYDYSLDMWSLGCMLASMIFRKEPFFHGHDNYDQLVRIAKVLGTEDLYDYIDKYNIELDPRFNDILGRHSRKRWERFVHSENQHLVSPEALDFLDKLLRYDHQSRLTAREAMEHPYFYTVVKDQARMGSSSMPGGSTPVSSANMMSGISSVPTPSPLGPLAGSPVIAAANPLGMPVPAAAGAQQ
Experimental: as §1, §2, §3, §4, §5, §6, §7

MAP2K1A = molecular target: T5, MAP2K1A (Homo sapiens, UniProt Q02750)
T5 construct: purchased in-house DSF panel (SGC-style construct names; the trailing A/B is a construct suffix)
T5 sequence (Q02750 62-393): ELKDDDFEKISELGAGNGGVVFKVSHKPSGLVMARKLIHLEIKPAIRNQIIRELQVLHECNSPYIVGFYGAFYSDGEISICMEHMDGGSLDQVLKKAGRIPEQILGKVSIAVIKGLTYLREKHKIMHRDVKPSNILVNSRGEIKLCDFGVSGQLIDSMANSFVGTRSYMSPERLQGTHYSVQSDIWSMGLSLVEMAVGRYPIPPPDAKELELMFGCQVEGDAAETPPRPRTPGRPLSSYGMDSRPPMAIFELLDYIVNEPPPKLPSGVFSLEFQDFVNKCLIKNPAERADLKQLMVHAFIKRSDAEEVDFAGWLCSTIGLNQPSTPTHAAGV
Experimental: as §1, §2, §3, §4, §5, §6, §7

EPHA5A = molecular target: T6, EPHA5A (Homo sapiens, UniProt P54756)
T6 construct: purchased in-house DSF panel (SGC-style construct names; the trailing A/B is a construct suffix)
T6 sequence (P54756 653-939): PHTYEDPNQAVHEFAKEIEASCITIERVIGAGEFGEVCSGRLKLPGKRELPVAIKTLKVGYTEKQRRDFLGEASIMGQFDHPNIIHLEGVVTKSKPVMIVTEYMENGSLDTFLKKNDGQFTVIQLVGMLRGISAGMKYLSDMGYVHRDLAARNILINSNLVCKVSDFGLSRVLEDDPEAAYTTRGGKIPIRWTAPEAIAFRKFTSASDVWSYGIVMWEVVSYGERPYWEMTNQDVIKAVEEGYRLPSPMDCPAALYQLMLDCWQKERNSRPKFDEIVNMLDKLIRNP
Experimental: as §1, §2, §3, §4, §5, §6, §7

DAPK3A = molecular target: T7, DAPK3A (Homo sapiens, UniProt O43293)
T7 construct: purchased in-house DSF panel (SGC-style construct names; the trailing A/B is a construct suffix)
T7 sequence (O43293 9-289): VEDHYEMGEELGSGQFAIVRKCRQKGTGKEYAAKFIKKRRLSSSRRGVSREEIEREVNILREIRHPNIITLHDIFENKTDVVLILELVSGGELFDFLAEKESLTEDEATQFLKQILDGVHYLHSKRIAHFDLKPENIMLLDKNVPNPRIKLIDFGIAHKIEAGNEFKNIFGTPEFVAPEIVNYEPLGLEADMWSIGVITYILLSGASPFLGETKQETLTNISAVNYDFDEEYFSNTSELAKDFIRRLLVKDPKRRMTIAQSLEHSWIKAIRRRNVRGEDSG
Experimental: as §1, §2, §3, §4, §5, §6, §7

CAMK2DA = molecular target: T8, CAMK2DA (Homo sapiens, UniProt Q13557)
T8 construct: purchased in-house DSF panel (SGC-style construct names; the trailing A/B is a construct suffix)
T8 sequence (Q13557 11-309): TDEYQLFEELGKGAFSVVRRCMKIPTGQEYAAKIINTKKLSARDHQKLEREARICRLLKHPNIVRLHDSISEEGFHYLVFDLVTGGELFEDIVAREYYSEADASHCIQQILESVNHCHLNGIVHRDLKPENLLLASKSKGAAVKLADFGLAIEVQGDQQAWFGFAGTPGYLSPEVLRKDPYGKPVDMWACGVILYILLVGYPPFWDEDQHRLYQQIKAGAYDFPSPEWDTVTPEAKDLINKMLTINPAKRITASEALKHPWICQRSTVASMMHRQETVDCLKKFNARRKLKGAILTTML
Experimental: as §1, §2, §3, §4, §5, §6, §7

MST4A = molecular target: T9, MST4A (Homo sapiens, UniProt Q9P289)
T9 construct: purchased in-house DSF panel (SGC-style construct names; the trailing A/B is a construct suffix)
T9 sequence (Q9P289 1-300): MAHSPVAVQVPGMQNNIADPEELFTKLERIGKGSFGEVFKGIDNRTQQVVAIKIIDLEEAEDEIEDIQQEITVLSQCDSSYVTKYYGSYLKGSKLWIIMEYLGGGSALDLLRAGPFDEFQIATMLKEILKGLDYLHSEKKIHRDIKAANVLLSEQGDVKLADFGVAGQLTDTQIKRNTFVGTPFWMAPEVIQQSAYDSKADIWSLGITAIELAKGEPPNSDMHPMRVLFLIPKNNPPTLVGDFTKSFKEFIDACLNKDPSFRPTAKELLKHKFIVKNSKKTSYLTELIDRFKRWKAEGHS
Experimental: as §1, §2, §3, §4, §5, §6, §7

STK38LA = molecular target: T10, STK38LA (Homo sapiens, UniProt Q9Y2H1)
T10 construct: purchased in-house DSF panel (SGC-style construct names; the trailing A/B is a construct suffix)
T10 sequence (Q9Y2H1 90-453): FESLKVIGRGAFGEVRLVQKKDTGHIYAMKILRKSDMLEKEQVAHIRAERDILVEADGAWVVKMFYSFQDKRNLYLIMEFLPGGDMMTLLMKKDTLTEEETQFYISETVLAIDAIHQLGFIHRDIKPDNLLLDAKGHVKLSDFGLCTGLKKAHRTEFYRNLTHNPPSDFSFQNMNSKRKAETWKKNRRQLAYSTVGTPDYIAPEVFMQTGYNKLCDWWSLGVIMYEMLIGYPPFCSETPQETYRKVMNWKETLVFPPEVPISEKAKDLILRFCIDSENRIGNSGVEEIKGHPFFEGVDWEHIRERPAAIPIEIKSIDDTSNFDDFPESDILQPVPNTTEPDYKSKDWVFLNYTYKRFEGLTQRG
Experimental: as §1, §2, §3, §4, §5, §6, §7

SRPK1 = molecular target: T11, SRPK1 (Homo sapiens, UniProt Q96SB4)
T11 construct: purchased in-house DSF panel (SGC-style construct names; the trailing A/B is a construct suffix)
T11 sequence (Q96SB4 whole entry): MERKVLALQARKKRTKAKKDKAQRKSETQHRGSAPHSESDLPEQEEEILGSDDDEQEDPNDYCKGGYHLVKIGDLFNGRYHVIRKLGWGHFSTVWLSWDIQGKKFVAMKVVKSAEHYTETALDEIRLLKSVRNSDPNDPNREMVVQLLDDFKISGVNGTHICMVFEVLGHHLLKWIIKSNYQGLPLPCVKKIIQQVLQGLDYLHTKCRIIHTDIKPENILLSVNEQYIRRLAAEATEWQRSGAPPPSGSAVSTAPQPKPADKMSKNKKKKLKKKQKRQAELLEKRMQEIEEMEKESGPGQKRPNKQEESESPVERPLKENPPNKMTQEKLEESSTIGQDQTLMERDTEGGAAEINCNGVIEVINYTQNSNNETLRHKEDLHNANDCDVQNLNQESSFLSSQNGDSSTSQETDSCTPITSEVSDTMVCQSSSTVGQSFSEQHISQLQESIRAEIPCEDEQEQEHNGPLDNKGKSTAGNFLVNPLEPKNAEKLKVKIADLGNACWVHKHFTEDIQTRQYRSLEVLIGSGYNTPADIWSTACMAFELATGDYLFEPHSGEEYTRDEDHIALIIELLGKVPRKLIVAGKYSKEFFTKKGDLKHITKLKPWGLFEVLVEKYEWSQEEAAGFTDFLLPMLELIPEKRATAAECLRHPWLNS
Experimental: as §1, §2, §3, §4, §5, §6, §7

NEK2A = molecular target: T12, NEK2A (Homo sapiens, UniProt P51955)
T12 construct: purchased in-house DSF panel (SGC-style construct names; the trailing A/B is a construct suffix)
T12 sequence (P51955 1-271): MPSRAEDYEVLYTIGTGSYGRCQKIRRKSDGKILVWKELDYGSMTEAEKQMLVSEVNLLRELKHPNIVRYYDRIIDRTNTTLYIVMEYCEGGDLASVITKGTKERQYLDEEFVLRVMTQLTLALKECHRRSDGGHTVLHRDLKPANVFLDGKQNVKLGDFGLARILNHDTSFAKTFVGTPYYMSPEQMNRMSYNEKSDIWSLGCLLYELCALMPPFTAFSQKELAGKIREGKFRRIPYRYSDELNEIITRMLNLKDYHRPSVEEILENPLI
Experimental: as §1, §2, §3, §4, §5, §6, §7

SLKA = molecular target: T13, SLKA (Homo sapiens, UniProt Q9H2G2)
T13 construct: purchased in-house DSF panel (SGC-style construct names; the trailing A/B is a construct suffix)
Experimental: as §1, §2, §3, §4, §5, §6, §7

| SMILES | ΔTm (RPS6KA1A) | ΔTm (CDC42BPAA) | ΔTm at 20 µM (CSNK1DA) | ΔTm at 20 µM (BMPR2A) | ΔTm at 20 µM (MARK3A) | ΔTm at 20 µM (CK2A1A) | ΔTm at 20 µM (MAP2K1A) | ΔTm at 20 µM (EPHA5A) | ΔTm at 20 µM (DAPK3A) | ΔTm at 20 µM (CAMK2DA) | ΔTm at 20 µM (MST4A) | ΔTm at 20 µM (STK38LA) | ΔTm at 20 µM (SRPK1) | ΔTm at 20 µM (NEK2A) | ΔTm at 20 µM (SLKA) |
| --- | --- | --- | --- | --- | --- | --- | --- | --- | --- | --- | --- | --- | --- | --- | --- |
| CC(C)(C)OC(=O)NCCOCCOCCOCCOCCC(=O)N1CCN(c2cc(Nc3cc(C4CC4)[nH]n3)nc(Nc3ccc(CC#N)cc3)n2)CC1 [4-L] | 0.76 °C | -2.71 °C | 3.01 °C | 9.02 °C | 5.32 °C | 3.81 °C | 1.66 °C | 7.97 °C | 7.59 °C | 2.15 °C | 9.01 °C | 10.2 °C | 0.76 °C | 2.97 °C | 11.3 °C |
| CC(C)(C)OC(=O)NCCCOCCOCCOCCCNC(=O)c1cc(Nc2cc(C3CC3)[nH]n2)nc(Nc2ccc(CC#N)cc2)n1 [5-L] | 1.85 °C | -3.72 °C | 5.43 °C | 7.29 °C | 3.97 °C | 5.58 °C | 1.17 °C | 4.95 °C | 7.97 °C | 3.75 °C | 4.64 °C | 7.04 °C | 2.8 °C | 0.77 °C | 8.84 °C |
| CCOC(=O)c1cc(Nc2cc(C3CC3)[nH]n2)nc(Nc2ccc(CC#N)cc2)n1 [compound 5] | 1.55 °C | -2.55 °C | 2.62 °C | 7.28 °C | 5.37 °C | 3.87 °C | 1.56 °C | 5.7 °C | 10.6 °C | 3.37 °C | 5.53 °C | 6.74 °C | 4.31 °C | 2.25 °C | 9.06 °C |
